Assays:
[1] = Dynamic vapor sorption (DVS) test; type: physicochemical
Protocol: The crystalline form I of Compound A prepared in Example 3 was subjected to dynamic vapor sorption test, and the dynamic vapor sorption (DVS) curves were acquired on DVS Intrinsic of SMS (Surface Measurement Systems). The relative humidity at 25° C. was corrected with the deliquescence points of LiCl, Mg (NO3)2, and KCl.

[2] = Solid-state stability (XRPD for physical, HPLC purity for chemical stability); type: physicochemical
[3] = Pharmacokinetic assay in ICR mice; type: in vivo; settings: male ICR mice, iv 1 mg/kg and po 10 mg/kg, plasma by LC/MS/MS
Protocol: ICR mice (purchased from Beijing Viton Lihua Laboratory Animal Technology Co.)
2.2 Experimental procedure • (1) Healthy male ICR mice (18-22 g) were prepared, with 18 mice for each compound which were divided into 2 groups (iv and po groups) of 9 mice each, and 3 mice were selected for blood collection at each time point. • (2) After fasting (free water intake) overnight, the compound of the invention was solubilized (or formed into a suspension) with 5% DMSO, 95% 30% HP-β-CD (v: v) as solvent. The compound was administered via the tail vein (iv, 1 mg/kg) and by gavage (po, 10 mg/kg), respectively. • (3) In the iv group, 0.1 mL of blood was collected from the submandibular vein at 5 min, 15 min, 0.5 h, 1 h, 2 h, 4 h, 8 h, 12 h, and 24 h, respectively, and the blood was anticoagulated with EDTA-K2, and then centrifuged at 4° C. for 5 min to separate the plasma, which was stored at-20° C. before measurement. • (4) In the po group, 0.1 mL of blood was collected from the submandibular vein before and after administration at 15 min, 0.5h, 1h, 2h, 4h, 6h, 8h, 12h and 24h respectively, and processed in the same manner as in the iv group. • (5) The concentration of the compound of the present invention in plasma was determined by a LC/MS/MS method. • (6) The results were calculated and fitted using Analyst 1.6 from AB.

Row | change in sample weight (DVS) ([1]; 0% RH-95% RH-0% RH at 25° C.) | hygroscopicity (DVS) ([1]; 0% RH-95% RH-0% RH at 25° C.) | pharmacokinetic properties [3] | SMILES | transformation of crystalline form before and after DVS (XRPD comparison) ([1]; XRPD before and after DVS) | solid-state stability: crystalline transformation (XRPD) and purity (HPLC) ([2]; 25° C./60% RH/open, 1 week) | solid-state stability: crystalline transformation (XRPD) and purity (HPLC) ([2]; 40° C./75% RH/open, 1 week) | solid-state stability: crystalline transformation (XRPD) and purity (HPLC) ([2]; 60° C./close, 1 day) | solid-state stability: crystalline transformation (XRPD) and purity (HPLC) ([2]; 80° C./close, 1 day)
1 | less than 0.2% | free or almost free of hygroscopicity | – | CCn1c(=O)n(C2CCOCC2)c2nc(Nc3cc(F)c(C(N)=O)cc3C)ncc21 [crystalline form I, 4-((7-ethyl-8-oxo-9-(tetrahydro-2H-pyran-4-yl)-8,9-dihydro-7H-purin-2-yl)amino)-2-fluoro-5-methylbenzamide] | no transformation of crystalline form occurred | no crystalline transformation or decrease in purity was observed | no crystalline transformation or decrease in purity was observed | no crystalline transformation or decrease in purity was observed | no crystalline transformation or decrease in purity was observed
2 | – | – | good pharmacokinetic properties | CCn1c(=O)n(C2CCOCC2)c2nc(Nc3cc(F)c(C(N)=O)cc3C)ncc21 [Compound A, 4-((7-ethyl-8-oxo-9-(tetrahydro-2H-pyran-4-yl)-8,9-dihydro-7H-purin-2-yl)amino)-2-fluoro-5-methylbenzamide] | – | – | – | – | –

From patent US20240391921A1, “CRYSTAL FORM OF IMIDAZOLINONE DERIVATIVE” (CHENGDU BAIYU PHARMACEUTICAL CO., LTD., priority 2021, published 2024)
